Activity and inhibition data for seven compounds are collected here from ChEMBL document CHEMBL3734678, “Protective effect and mechanism of action of lupane triterpenes from Cornus walteri in cisplatin-induced nephrotoxicity” (2015).

The subject of experiment [1] is LLC-PK1. The experiment is described as follows: Renoprotective activity in pig LLC-PK1 cells assessed as reduction in cisplatin-induced toxicity preincubated for 2 hrs followed by cisplatin challenge for 24 hrs by MTT assay. Particulars: Sus scrofa. Type of experiment: functional, cell-based. (Formazan colour is commonly taken as a measure of viable cells.)
In experiment [2] the test system is LLC-PK1. The experiment is described as follows: Inhibition of cisplatin-induced ERK phosphorylation in pig LLC-PK1 cells at 125 uM preincubated for 2 hrs followed by cisplatin challenge for 24 hrs by western blot analysis. It counts as cell-based. Particulars: Sus scrofa.
Experiment [3] deals with LLC-PK1. Description: Renoprotective activity in pig LLC-PK1 cells assessed as reduction in cisplatin-induced cell shrank at 125 uM preincubated for 2 hrs followed by cisplatin challenge for 24 hrs by phase-contrast microscopic analysis. Particulars: Sus scrofa. It counts as functional, cell-based.
Experiment [4] concerns LLC-PK1. The experiment is described as follows: Inhibition of cisplatin-induced JNK phosphorylation in pig LLC-PK1 cells at 125 uM preincubated for 2 hrs followed by cisplatin challenge for 24 hrs by western blot analysis. It counts as cell-based. Conditions: Sus scrofa. On the technique in general: Immunoblotting shows a protein as a band on a membrane.
In experiment [5] the test system is LLC-PK1. Description: Renoprotective activity against cisplatin induced toxicity in pig LLC-PK1 cells assessed as reduction in apoptotic cells at 125 uM preincubated for 2 hrs followed by cisplatin challenge for 24 hrs annexin-V-FITC and propidium iodide staining based flow cytometry. Type of experiment: functional, cell-based. Conditions: Sus scrofa. On the technique in general: A flow cytometer gives signals particle by particle.

Experiment [6] relates to LLC-PK1. The experiment is described as follows: Renoprotective activity in pig LLC-PK1 cells assessed as reduction in cisplatin-induced toxicity at 250 uM preincubated for 2 hrs followed by cisplatin challenge for 24 hrs by MTT assay. Type of experiment: functional, Sus scrofa. Further details: scale not given: the % may be the effect or the level left.
In experiment [7] the test system is LLC-PK1. The experiment is described as follows: Renoprotective activity in pig LLC-PK1 cells assessed as reduction in cisplatin-induced nucleus break-up at 125 uM preincubated for 2 hrs followed by cisplatin challenge for 24 hrs by phase-contrast microscopic analysis. It counts as functional, cell-based. Particulars: Sus scrofa.
Experiment [8] relates to LLC-PK1. The experiment is described as follows: Inhibition of cisplatin-induced p38 phosphorylation in pig LLC-PK1 cells at 125 uM preincubated for 2 hrs followed by cisplatin challenge for 24 hrs by western blot analysis. It counts as cell-based. Conditions: Sus scrofa.
For experiment [9], the system named is LLC-PK1. The experiment is described as follows: Renoprotective activity in pig LLC-PK1 cells assessed as reduction in cisplatin-induced progressive condensation at 125 uM preincubated for 2 hrs followed by cisplatin challenge for 24 hrs by phase-contrast microscopic analysis. Type of experiment: functional, cell-based. Conditions: Sus scrofa.
The subject of experiment [10] is LLC-PK1. The experiment is described as follows: Renoprotective activity in pig LLC-PK1 cells assessed as reduction in cisplatin-induced toxicity at 125 uM preincubated for 2 hrs followed by cisplatin challenge for 24 hrs by MTT assay. It counts as functional, Sus scrofa. Further details: scale not given: the % may be the effect or the level left.
The test system of experiment [11] is LLC-PK1. Description: Renoprotective activity in pig LLC-PK1 cells assessed as inhibition of cisplatin-induced cleaved caspase-3 expression at 125 uM preincubated for 2 hrs followed by cisplatin challenge for 24 hrs by western blot analysis. It counts as functional, cell-based. Particulars: Sus scrofa.

Activity calls are given as the source filed them. The rule behind the calls is not given here.

For the compound `C=C(C)[C@@H]1CC[C@]2(C(=O)OC)CC[C@]3(C)[C@H](CC[C@@H]4[C@@]5(C)CC[C@@H](O)C(C)(C)[C@@H]5CC[C@]43C)[C@@H]12`, in the experiment with LLC-PK1 [1], the Activity entry is “Dose-dependent effect”.
`C=C(C)[C@@H]1CC[C@]2(CO)CC[C@]3(C)[C@H](CC[C@@H]4[C@@]5(C)CC[C@H](OC(C)=O)C(C)(C)[C@@H]5CC[C@]43C)[C@@H]12`: the inhibition entry in the experiment with LLC-PK1 [2], in the experiment on LLC-PK1 [4], in the experiment with LLC-PK1 [8] and with LLC-PK1 [11] was “Active” in each case. The result in the experiment with LLC-PK1 [3], with LLC-PK1 [5], in the experiment with LLC-PK1 [7] and in the experiment with LLC-PK1 [9] was Active. In addition, the figures for the Activity with LLC-PK1 [6], in the experiment with LLC-PK1 [1] and in the experiment on LLC-PK1 [10] were 80%, “Dose-dependent effect” and 80%, respectively.
For the compound `C=C(C)[C@@H]1CC[C@]2(C)CC[C@]3(C)[C@H](CC[C@@H]4[C@@]5(C)CC[C@H](O)C(C)(C)[C@@H]5CC[C@]43C)[C@@H]12` [LUPEOL], the inhibition result in the experiment with LLC-PK1 [2], in the experiment on LLC-PK1 [4], in the experiment on LLC-PK1 [8] and in the experiment with LLC-PK1 [11] was “Active” in each case. Moreover, the result with LLC-PK1 [3], in the experiment on LLC-PK1 [5], with LLC-PK1 [7] and with LLC-PK1 [9] was Active. For the same compound, the Activity with LLC-PK1 [6] was 80%; in the experiment with LLC-PK1 [1], “Dose-dependent effect”; in the experiment with LLC-PK1 [10], 80%.
In the case of `C=C(C)[C@@H]1CC[C@]2(C(=O)O)CC[C@]3(C)[C@H](CC[C@@H]4[C@@]5(C)CC[C@H](O)C(C)(C)[C@@H]5CC[C@]43C)[C@@H]12` [BETULINIC ACID], the inhibition result in the experiment with LLC-PK1 [2] is “inactive”. In addition, the result in the experiment on LLC-PK1 [3], with LLC-PK1 [5], with LLC-PK1 [7] and in the experiment on LLC-PK1 [9] was Active. Besides, the inhibition result with LLC-PK1 [4], in the experiment with LLC-PK1 [8] and in the experiment on LLC-PK1 [11] was “Active” in each case. Further, the values for the Activity in the experiment with LLC-PK1 [6], in the experiment with LLC-PK1 [1] and with LLC-PK1 [10] were 80%, “Dose-dependent effect” and 80%, respectively.
Consider `C=C(C)[C@@H]1CC[C@]2(C(=O)O)CC[C@]3(C)[C@H](CC[C@@H]4[C@@]5(C)C[C@@H](OC(=O)/C=C/c6ccc(O)cc6)[C@H](O)C(C)(C)[C@@H]5CC[C@]43C)[C@@H]12`, for which the Activity entry in the experiment on LLC-PK1 [1] is “Dose-dependent effect”.
Still for that read-out and setting: next, `C=C(C)[C@@H]1CC[C@]2(C(=O)O)CC[C@]3(C)[C@H](CC[C@@H]4[C@@]5(C)C[C@@H](O)[C@H](O)C(C)(C)[C@@H]5CC[C@]43C)[C@@H]12`: “Dose-dependent effect”.
For `C=C(C=O)[C@@H]1CC[C@]2(C(=O)O)CC[C@]3(C)[C@H](CC[C@@H]4[C@@]5(C)CC[C@H](O)C(C)(C)[C@@H]5CC[C@]43C)[C@@H]12`, the inhibition entry in the experiment on LLC-PK1 [2], in the experiment with LLC-PK1 [4], in the experiment on LLC-PK1 [8] and with LLC-PK1 [11] was “Active” in each case. Further, the outcome with LLC-PK1 [3], in the experiment on LLC-PK1 [5], with LLC-PK1 [7] and with LLC-PK1 [9] was Active. Besides, the values for the Activity in the experiment with LLC-PK1 [6], with LLC-PK1 [1] and in the experiment on LLC-PK1 [10] were 80%, “Dose-dependent effect” and 80%, respectively.
